Assay results: PMC13065040 (PLOS One, 2026)
“And” between values parts separate entries of the source, which are not always exact repeats. Identical values can stand only once. Where a SMILES comes first, the peptide text is derived from it. Bridges are numbered along the chain shown (N, C = ends).

Tests used:
[1] = target: T1, Neuropilin-1 (NRP-1) (Homo sapiens, UniProt O14786); test: Surface plasmon resonance (SPR), immobilized NRP-1; format: binding; conditions: NTA chip, steady-state affinity model, pH 7.4, n = 3, 4 replicates, read-out: dissociation constant (KD) for NRP-1
T1 construct: containing amino acid residues Phe22-Lys644, with a poly-histidine tag at the C-terminus; purchased ACROBiosystems NR1-H5228
T1 sequence (O14786 22-644 isoform O14786-2): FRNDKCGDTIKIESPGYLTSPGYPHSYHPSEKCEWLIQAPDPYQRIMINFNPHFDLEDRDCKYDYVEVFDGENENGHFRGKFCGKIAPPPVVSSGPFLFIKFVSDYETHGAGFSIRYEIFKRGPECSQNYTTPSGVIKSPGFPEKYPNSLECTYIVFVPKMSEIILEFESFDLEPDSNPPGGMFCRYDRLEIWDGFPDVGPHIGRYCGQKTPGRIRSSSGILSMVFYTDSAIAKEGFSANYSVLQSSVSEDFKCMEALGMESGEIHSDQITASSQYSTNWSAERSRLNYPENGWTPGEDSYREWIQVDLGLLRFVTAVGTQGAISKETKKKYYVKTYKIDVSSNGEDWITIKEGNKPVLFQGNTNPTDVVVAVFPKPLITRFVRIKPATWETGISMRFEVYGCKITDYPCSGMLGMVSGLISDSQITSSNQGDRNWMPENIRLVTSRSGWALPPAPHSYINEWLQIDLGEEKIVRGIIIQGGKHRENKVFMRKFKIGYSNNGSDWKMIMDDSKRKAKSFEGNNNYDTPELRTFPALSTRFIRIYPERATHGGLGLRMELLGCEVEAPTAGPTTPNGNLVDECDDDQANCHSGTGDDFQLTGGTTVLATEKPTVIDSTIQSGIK
Procedure: Surface plasmon resonance (SPR) reagents, plates, and the NTA chip were purchased from GE Healthcare Life Sciences, now Cytiva (Marlborough, MA, USA). Measurements were performed using the Biacore 8000 SPR System (Marlborough, MA. USA). The running buffer used for protein immobilization and peptide binding consisted of 20 mM Tris, 150 mM NaCl, […] and 0.0005% Tween-20, adjusted to pH 7.4. MMP-2 and NRP-1 were immobilized onto the NTA chip at 15 nM and 25 nM concentration, respectively. Peptides were injected over the immobilized proteins using two-fold serial dilutions from 500 µM to 3.90 µM. Three experiments with four replicates of each were performed. The SPR response curves generated from the Biacore Insight Evaluation Software were fitted to a steady-state affinity model to obtain an equilibrium dissociation constant (KD) for each peptide — protein interaction.

[2] = target: T2, MMP-2 (Homo sapiens, UniProt P08253); test: MMP-2 inhibition assay (Enzo kit, OmniMMP RED fluorogenic substrate); format: biochemical
T2 construct: purchased Enzo Life Sciences (MMP-2 drug discovery kit)
Procedure: The MMP-2 inhibition assay was performed using the Enzo Life Sciences MMP-2 drug discovery kit. and the quenched fluorogenic substrate OmniMMP RED. Reference substrate was diluted to a final concentration of 5 μM, while the MMP-2 enzyme was diluted to 58 mU/µL, and the N-Isobutyl-N-(4-methoxyphenylsulfonyl)glycyl hydroxamic acid (NNGH) inhibitor was diluted to a concentration of 1/200 in assay buffer. […] The assay was performed using a black 96-well microplate. Fluorescence was measured at excitation/emission wavelengths of 545/576 nm, with a cutoff at 570 nm using Gen5 microplate reader (BioTeK, Shoreline, WA). Baseline fluorescence was recorded before adding NNGH inhibitor which was used as a positive control for MMP-2 inhibition. Reaction mixtures in the plate were incubated at 37 °C for 10 min, and fluorescence was measured at 10 min intervals for the first 30 min, then at 30 min intervals until 2 h had elapsed. […] Statistical analysis was performed using ANOVA with GraphPad Prism software, version 10.0.3.

[3] = target: T3, MMP-2 (Homo sapiens, UniProt P08253); test: Differential scanning fluorimetry (DSF); format: binding; set-up: Dtm (ΔTm): unit not given here; conditions: for Dtm (ΔTm), average: average of replicates
T3 construct: ProSpec Bio; Antibodies-Online; Elabscience; Abcam ENZ-769; ABIN7400042; PKSH033450
T3 sequence (P08253 110-660): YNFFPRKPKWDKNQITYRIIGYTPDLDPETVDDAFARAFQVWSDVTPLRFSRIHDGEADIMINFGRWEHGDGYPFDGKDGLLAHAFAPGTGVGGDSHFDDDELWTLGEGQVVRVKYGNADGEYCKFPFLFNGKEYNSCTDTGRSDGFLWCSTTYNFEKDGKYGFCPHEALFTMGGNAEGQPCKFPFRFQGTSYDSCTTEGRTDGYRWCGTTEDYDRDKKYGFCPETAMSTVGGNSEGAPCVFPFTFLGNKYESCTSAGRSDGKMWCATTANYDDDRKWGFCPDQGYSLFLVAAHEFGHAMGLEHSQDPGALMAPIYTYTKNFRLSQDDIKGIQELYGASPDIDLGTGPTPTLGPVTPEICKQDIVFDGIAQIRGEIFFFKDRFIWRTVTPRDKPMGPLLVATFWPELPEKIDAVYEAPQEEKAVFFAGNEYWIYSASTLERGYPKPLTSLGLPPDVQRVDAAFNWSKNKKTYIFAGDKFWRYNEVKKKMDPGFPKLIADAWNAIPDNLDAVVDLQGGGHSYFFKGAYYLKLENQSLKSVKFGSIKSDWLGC
Procedure: The melting temperatures (Tm) of recombinant MMP-2 and its complexes with peptides were ascertained using BioRad CFX384 Touch real-time PCR (Hercules, CA, USA). The experiments were performed as previously described. The unfolding of the protein was detected using the fluorescent SYPRO-orange dye (Invitrogen, Carlsbad, CA, USA). MMP-2 and prospective ligand peptides were dissolved in 7.1 pH phosphate buffered saline (154 mM NaCl, 5.6 mM Na2PO4, 1.1 mM KH2PO4), and the reaction mixture was made to a final concentration of 1 µM of protein, either 30 µM ([…]) of peptide, and 1000x dilution of the SYPRO-Orange dye stock from the manufacturer. Excitation and emission filters of the dye were set at 450 − 490 nm and 560 − 580 nm, respectively. The temperature for the reaction was held at 25 °C for 5 min, and then a gradient of 25 °C to 95 °C was applied at a rate of 0.3 °C/min, and the fluorescence was recorded. To determine Tm of the protein, the first derivatives of melting curves were plotted using GraphPad Prism software, version 10.0.3.

[4] = peptide 30, P75/P76 experiment 1, replicate 1
[5] = peptide 30, P75/P76 experiment 1, replicate 2
[6] = peptide 30, P75/P76 experiment 1, replicate 3
[7] = peptide 30, P75/P76 experiment 2, replicate 1
[8] = peptide 30, P75/P76 experiment 2, replicate 2
[9] = peptide 30, P75/P76 experiment 2, replicate 3
[10] = peptide 30, P75/P76 experiment 3, replicate 1
[11] = peptide 30, P75/P76 experiment 3, replicate 2
[12] = peptide 30, P75/P76 experiment 3, replicate 3
[13] = peptide 50, P75/P76 experiment 1, replicate 2
[14] = peptide 50, P75/P76 experiment 1, replicate 3
[15] = peptide 50, P75/P76 experiment 2, replicate 1
[16] = peptide 50, P75/P76 experiment 2, replicate 2
[17] = peptide 50, P75/P76 experiment 2, replicate 3
[18] = peptide 50, P75/P76 experiment 3, replicate 1
[19] = peptide 50, P75/P76 experiment 3, replicate 2
[20] = peptide 50, P75/P76 experiment 3, replicate 3

Work on `CC(=O)N[C@@H](CCCCN)C(=O)N[C@H]1CSSC[C@@H](C(=O)N[C@@H](CC(C)C)C(N)=O)NC(=O)[C@H](CCC(N)=O)NC(=O)[C@@H]2CCCN2C(=O)CNC(=O)[C@H](Cc2ccc(O)cc2)NC1=O` [P78, Ac-[Cyc(28,33)]Ctx(27–34)-NH2] (Ac-KCYGPQCL-NH2; disulfide 2-7) yielded a Kd [1] of 267 ± 103 µM.

In the case of `COc1ccc(S(=O)(=O)N(CC(=O)NO)CC(C)C)cc1` [NNGH, N-Isobutyl-N-(4-methoxyphenylsulfonyl)glycyl hydroxamic acid], the “MMP-2 enzymatic activity, percent of control” value [2] is reported as 11.2096 and 16.193.

For “Ac-[Cys^26,Ser^28,33,Cyc(26,35)]Ctx(24–36)-NH2 [P76]”, the “ΔTm ± SD, change in melting temperature of MMP-2” value ([3]; 1 µM MMP-2, 30 µM (Ctx) or 50 µM (P75 and P76) peptide, PBS pH 7.1, SYPRO-Orange, average and SD of n ≥ 3, SD) was 0.63 ± 0.36 °C, the “Dtm (ΔTm), average” value ([3]; peptide 30 (µM per method)) was 0.6556 and the “Dtm (ΔTm)” value [3, 4] was -0.7333. For the same molecule, the Tm of MMP-2 with peptide [3, 4] was 45.7 °C, the “Dtm (ΔTm)” value [3, 5] was -0.4333 and the Tm of MMP-2 with peptide [3, 5] was 46 °C. For the same molecule, the “Dtm (ΔTm)” value [3, 6] was 0.1667, the Tm of MMP-2 with peptide [3, 6] was 46.6 °C and the “Dtm (ΔTm)” value [3, 7] was 1.8. For the same molecule, the Tm of MMP-2 with peptide [3, 7] was 48.7 °C, the “Dtm (ΔTm)” value [3, 8] was 1.5 and the Tm of MMP-2 with peptide [3, 8] was 48.4 °C. The “Dtm (ΔTm)” value [3, 9] was 1.8, the Tm of MMP-2 with peptide [3, 9] was 48.7 °C and the “Dtm (ΔTm)” value [3, 10] was 0.5. For the same molecule, the Tm of MMP-2 with peptide [3, 10] was 47.8 °C, the “Dtm (ΔTm)” value [3, 11] was 0.5 and the Tm of MMP-2 with peptide [3, 11] was 47.8 °C. The “Dtm (ΔTm)” value [3, 12] was 0.8, the Tm of MMP-2 with peptide [3, 12] was 48.1 °C and the “Dtm (ΔTm), average” value ([3]; peptide 50 (µM per method)) was 0.6222. For the same molecule, the Tm of MMP-2 with peptide ([3]; peptide 50, P75/P76 experiment 1, replicate 1) was 47.8 °C, the “Dtm (ΔTm)” value [3, 13] was 0.6 and the Tm of MMP-2 with peptide [3, 13] was 47.8 °C. The “Dtm (ΔTm)” value [3, 14] was 0.6, the Tm of MMP-2 with peptide [3, 14] was 47.8 °C and the “Dtm (ΔTm)” value [3, 15] was 0.5. The Tm of MMP-2 with peptide [3, 15] was 47.4 °C, the “Dtm (ΔTm)” value [3, 16] was 1.2 and the Tm of MMP-2 with peptide [3, 16] was 48.1 °C. The “Dtm (ΔTm)” value [3, 17] was 1.2, the Tm of MMP-2 with peptide [3, 17] was 48.1 °C and the “Dtm (ΔTm)” value [3, 18] was 0.2. For the same molecule, the Tm of MMP-2 with peptide [3, 18] was 47.5 °C, the “Dtm (ΔTm)” value [3, 19] was 0.5 and the Tm of MMP-2 with peptide [3, 19] was 47.8 °C. For the same molecule, the “Dtm (ΔTm)” value [3, 20] was 0.2, the Tm of MMP-2 with peptide [3, 20] was 47.5 °C and the “inhibition of MMP-2 enzymatic activity (Fig 10B)” value ([2]; peptides at 1 µM, 50 µM and 100 µM, one-way ANOVA vs control) was “not statistically significant”.

With `CC(=O)NCC(=O)N[C@@H](CCCNC(=N)N)C(=O)NCC(=O)N[C@@H](CCCCN)C(=O)N[C@H]1CSSC[C@@H](C(=O)N[C@@H](CC(C)C)C(=O)N[C@@H](CO)C(=O)N[C@@H](CCCNC(=N)N)C(N)=O)NC(=O)[C@H](CCC(N)=O)NC(=O)[C@@H]2CCCN2C(=O)CNC(=O)[C@H](Cc2ccc(O)cc2)NC1=O` [P75, Ac-[Ser^35,Cyc(28,33)]Ctx(24–36)-NH2] (Ac-GRGKCYGPQCLSR-NH2; disulfide 5-10) the “Dtm (ΔTm)” value [3, 4] was 1.067, the “Dtm (ΔTm)” value [3, 5] was 1.067 and the “Dtm (ΔTm)” value [3, 6] was 1.367. The “Dtm (ΔTm)” value [3, 7] was 0.6, the “Dtm (ΔTm)” value [3, 8] was 0.6 and the “Dtm (ΔTm)” value [3, 9] was 0.6. The “Dtm (ΔTm)” value [3, 10] was 0.2, the “Dtm (ΔTm)” value [3, 11] was -0.4 and the “Dtm (ΔTm)” value [3, 12] was -0.1. For the same molecule, the “Dtm (ΔTm), average” value ([3]; peptide 50 (µM per method)) was 0.7556 and the Kd [1] was 330 ± 146 µM.
